Measured values published in PubChem BioAssay AID743134 (The Scripps Research Institute Molecular Screening Center, 2013).
The source made the active and inactive calls.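 Rule for the calls: active = compound cutting LYPLA1 and LYPLA2 activity by half or more in mouse liver, kidney or brain after 5 mg/kg; inactive = the rest.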

Target: Acyl-protein thioesterase 1 (Mus musculus) (UniProt P97823)
Experiment: APT1 inhibition after dosing, tissue ABPP readout – mouse liver, brain, kidney proteomes, fluorescence gel, in vivo study for LYPLA1/LYPLA2 inhibitor project, late-stage follow-up (AID 743134)
Settings: C57BL6 mice i.p., tissue gel-based ABPP FP-Rh, 4 h

Chain of Acyl-protein thioesterase 1 (Mus musculus) (P97823 whole entry, looked up): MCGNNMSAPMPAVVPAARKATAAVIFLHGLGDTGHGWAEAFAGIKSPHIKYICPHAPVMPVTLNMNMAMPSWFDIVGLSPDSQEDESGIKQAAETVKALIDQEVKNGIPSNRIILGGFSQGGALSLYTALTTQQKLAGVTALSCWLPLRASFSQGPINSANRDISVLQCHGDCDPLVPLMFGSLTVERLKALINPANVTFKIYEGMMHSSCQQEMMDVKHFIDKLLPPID

Question: With `O=C(ON1C(=O)C2CN(C(=O)N3CCOCC3)CCN2C1=O)N1CCC(CCc2ccc(Cl)cc2)CC1` (stereo not drawn) as the compound, how does the outcome (Brain soluble proteome) read?
Answer: The outcome was “inactive”.

Question: What about the outcome (Kidney soluble proteome) of the same compound?
Answer: Its outcome is “active”.

Question: What about the outcome (Liver soluble proteome) of the same compound?
Answer: The outcome was “active”.
